Converted amounts (≈) assume the structure as drawn.
What was measured:
Type in all cases: functional
[1] = system: Mycobacterium tuberculosis; assay: Antimycobacterial activity against multidrug-resistant Mycobacterium tuberculosis isolate 16833 after 7 days by microplate alamar blue assay; conditions: isolate 16833, 168 h
[2] = system: Mycobacterium tuberculosis; assay: Antimycobacterial activity against multidrug-resistant Mycobacterium tuberculosis isolate 16995 after 7 days by microplate alamar blue assay; conditions: isolate 16995, 168 h
[3] = Resistance index, ratio of MIC>90 for multidrug-resistant Mycobacterium tuberculosis clinical isolate 16833 to MIC>90 for Mycobacterium tuberculosis H37Rv ATCC 27294
[4] = Resistance index, ratio of MIC>90 for multidrug-resistant Mycobacterium tuberculosis clinical isolate 16995 to MIC>90 for Mycobacterium tuberculosis H37Rv ATCC 27294

SMILES | MIC90 [1] | MIC90 [2] | Ratio [3] | Ratio [4]
O=C(c1ccc([N+](=O)[O-])o1)N1CCc2ccccc21 | > 4 µg/mL | > 4 µg/mL |  | 
NNC(=O)c1ccncc1 [ISONIAZID] | > 40 µg/mL | > 40 µg/mL |  | 
CO[C@H]1/C=C/O[C@@]2(C)Oc3c(C)c(O)c4c(O)c(c(/C=N/N5CCN(C)CC5)c(O)c4c3C2=O)NC(=O)/C(C)=C\C=C\[C@H](C)[C@H](O)[C@@H](C)[C@@H](O)[C@@H](C)[C@H](OC(C)=O)[C@@H]1C [RIFAMPIN] | > 40 µg/mL | > 40 µg/mL |  | 
CO/N=C1\CCN(C(=O)c2ccc([N+](=O)[O-])o2)C1 | 1.93 µg/mL (≈ 7.61 µM) | 1.91 µg/mL (≈ 7.54 µM) | 1 | 1
O=C(c1ccc([N+](=O)[O-])o1)N1CCC(=NOCc2ccccc2)CC1 | 0.482 µg/mL (≈ 1.4 µM) | 0.426 µg/mL (≈ 1.24 µM) | 1 | 1
O=C(c1ccc([N+](=O)[O-])o1)N1CC/C(=N\OCc2ccccc2)C1 | 0.207 µg/mL (≈ 0.629 µM) | 0.38 µg/mL (≈ 1.15 µM) | 1 | 1
CON=C1CCN(C(=O)c2ccc([N+](=O)[O-])o2)CC1 | 1.91 µg/mL (≈ 7.16 µM) | 1.94 µg/mL (≈ 7.24 µM) | 1 | 1
